Values quoted from earlier work in US5427767A, “Nanocrystalline magnetic iron oxide particles-method for preparation and use in medical diagnostics and therapy” (Institut fur Diagnostikforschung GmbH an der Freien …, priority 1991, dated 1995).

How the values were obtained:
[1] = 0.47 T, water, 40° C
[2] = in vivo

T1 relaxivity [1]	T2 relaxivity [1]	Molecule	allergic potential [2]
~4 1/mmol .phi.s	~4 1/mmol .phi.s	O=C([O-])CN(CCN(CC(=O)[O-])CC(=O)O)CCN(CC(=O)[O-])CC(=O)O.[Gd+3] [Gd-DTPA]	
		dextran	adverse allergic potential
